These results are taken from ChEMBL document CHEMBL5096229, “A 1,2,3-Triazole Derivative of Quinazoline Exhibits Antitumor Activity by Tethering RNF168 to SQSTM1/P62” (J Med Chem, 2022).

The source made the active and inactive calls. No cut-off for these calls is given here.

In data set [1] the test system is A549. The data set is described as follows: Cytotoxicity against human A549 cells assessed as reduction in cell viability incubated for 72 hrs by MTS assay. It is filed as functional, cell-based. The conditions noted are these: A549, 72 h.
The subject of data set [2] is HCT-116. Briefly: Cytotoxicity against human HCT-116 cells assessed as reduction in cell viability incubated for 72 hrs by MTS assay. It is filed as functional, cell-based. The conditions noted are these: HCT-116, 72 h.
Data set [3] deals with A-375. Briefly: Cytotoxicity against human A-375 cells assessed as reduction in cell viability incubated for 72 hrs by MTS assay. The format is functional, cell-based. To be noted: A-375, 72 h.
Data set [4] deals with HeLa. The data set is described as follows: Cytotoxicity against human HeLa cells assessed as reduction in cell viability incubated for 72 hrs by MTS assay. The format is functional, cell-based.
The test system of data set [5] is HepG2. The data set is described as follows: Cytotoxicity against human HepG2 cells assessed as reduction in cell viability incubated for 72 hrs by MTS assay. It is filed as functional, cell-based. To be noted: HepG2, 72 h.
The subject of data set [6] is MCF7. The data set is described as follows: Cytotoxicity against human MCF7 cells assessed as reduction in cell viability incubated for 72 hrs by MTS assay. The format is functional, cell-based. To be noted: MCF7, 72 h.
Data set [7] concerns MDA-MB-231. Briefly: Cytotoxicity against human MDA-MB-231 cells assessed as reduction in cell viability incubated for 72 hrs by MTS assay. It is filed as functional, cell-based. To be noted: MDA-MB-231, 72 h.
In data set [8] the test system is MGC-803. Briefly: Cytotoxicity against human MGC-803 cells assessed as reduction in cell viability incubated for 72 hrs by MTS assay. It is filed as functional, cell-based. The conditions noted are these: MGC-803, 72 h.
Data set [9] has as its system U2OS. Briefly: Cytotoxicity against human U2OS cells assessed as reduction in cell viability incubated for 72 hrs by MTS assay. It is filed as functional, cell-based.
Data set [10] can be described thus: Cytotoxicity against human MCF-10A cells assessed as reduction in cell viability incubated for 72 hrs by MTS assay. The format is toxicity, cell-based.
Data set [11] concerns HCT-116. Briefly: Induction of autophagy in human HCT-116 cells assessed as increase in p62 protein level measured after 12 to 24 hrs by Western blot analysis. It is filed as functional, cell-based. The conditions noted are these: time 12-24 hrs.
Data set [12] relates to HCT-116. The data set is described as follows: Induction of autophagy in human HCT-116 cells assessed as increase in LC-3B puncta level measured after 12 to 24 hrs by immunofluorescence analysis. It is filed as functional, cell-based. The conditions noted are these: time 12-24 hrs.
Data set [13] concerns HCT-116. Briefly: Induction of cell cycle arrest in human HCT-116 cells assessed as accumulation at G0/G1 phase at 0.34 uM after 24 hrs by propidium iodide-staining based flow cytometry (reference value: 58.01 +/- 1.77%). It is filed as functional.
Data set [14] relates to HCT-116. Briefly: Induction of cell cycle arrest in human HCT-116 cells assessed as accumulation at S phase at 0.34 uM after 24 hrs by propidium iodide-staining based flow cytometry (reference value: 17.17 +/- 0.18%). The format is functional.
In data set [15] the test system is HCT-116. The data set is described as follows: Induction of cell cycle arrest in human HCT-116 cells assessed as accumulation at G2/M phase at 0.34 uM after 24 hrs by propidium iodide-staining based flow cytometry (reference value: 23.25 +/- 1.38%). It is filed as functional.
The subject of data set [16] is HCT-116. Briefly: Induction of apoptosis in human HCT-116 cells at 5 to 10 uM measured after 24 hrs by annexinV-FITC/propidium iodide staining based flow cytometry analysis. It is filed as functional, cell-based. To be noted: dose 5-10 µM.
Data set [17] deals with HCT-116. The data set is described as follows: Induction of cell cycle arrest in human HCT-116 cells assessed as accumulation at G0/G1 phase at IC50 concentration after 24 hrs by propidium iodide-staining based flow cytometry (reference value: 58.01 +/- 1.77%). The format is functional.
Data set [18] relates to HCT-116. The data set is described as follows: Induction of cell cycle arrest in human HCT-116 cells assessed as accumulation at S phase at IC50 concentration after 24 hrs by propidium iodide-staining based flow cytometry (reference value: 17.17 +/- 0.18%). The format is functional.
Data set [19] deals with HCT-116. Briefly: Induction of cell cycle arrest in human HCT-116 cells assessed as accumulation at G2/M phase at IC50 concentration after 24 hrs by propidium iodide-staining based flow cytometry (reference value: 23.25 +/- 1.38%). It is filed as functional.
The target of data set [20] is Sequestosome-1 (Homo sapiens, UniProt Q13501). The data set is described as follows: Binding affinity to P62 in human HCT-116 cells lysates at 10 uM incubated for 12 hrs by pull-down based immunoblot assay. It is filed as subcellular. The conditions noted are these: filed as activator.
Sequestosome-1, sequence (Q13501 whole entry): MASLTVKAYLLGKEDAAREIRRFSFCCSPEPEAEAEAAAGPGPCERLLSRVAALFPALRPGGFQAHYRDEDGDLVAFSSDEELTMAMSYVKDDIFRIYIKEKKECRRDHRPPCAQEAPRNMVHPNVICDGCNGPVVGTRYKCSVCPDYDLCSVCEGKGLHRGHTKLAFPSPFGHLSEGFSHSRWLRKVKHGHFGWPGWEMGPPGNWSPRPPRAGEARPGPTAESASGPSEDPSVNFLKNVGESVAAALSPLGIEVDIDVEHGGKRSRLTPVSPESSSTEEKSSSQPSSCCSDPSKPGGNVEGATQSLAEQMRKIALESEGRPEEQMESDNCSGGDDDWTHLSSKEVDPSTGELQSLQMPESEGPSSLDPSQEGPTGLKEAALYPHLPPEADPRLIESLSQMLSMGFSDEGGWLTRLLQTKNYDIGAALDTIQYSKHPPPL
For data set [21], the system named is Bacteria. Briefly: Binding affinity to bacteria produced His tagged-P62 at 10 uM incubated for 12 hrs by pull-down based immunoblot assay. The conditions noted are these: filed as activator.
Data set [22] concerns the target T1, E3 ubiquitin-protein ligase RNF168 (Homo sapiens, UniProt Q8IYW5). The data set is described as follows: Binding affinity to RNF168 in human HCT-116 cells lysates at 10 uM by pull-down based immunoblot assay. It is filed as subcellular. The conditions noted are these: filed as activator.
Data set [23] deals with Bacteria. The data set is described as follows: Binding affinity to bacteria produced GST-tagged RNF168 at 10 uM by pull-down based immunoblot assay. The conditions noted are these: filed as activator.
Data set [24] deals with T1, E3 ubiquitin-protein ligase RNF168. Briefly: Binding affinity to RNF168 (unknown origin) by MST assay.

T1 sequence (Q8IYW5 whole entry): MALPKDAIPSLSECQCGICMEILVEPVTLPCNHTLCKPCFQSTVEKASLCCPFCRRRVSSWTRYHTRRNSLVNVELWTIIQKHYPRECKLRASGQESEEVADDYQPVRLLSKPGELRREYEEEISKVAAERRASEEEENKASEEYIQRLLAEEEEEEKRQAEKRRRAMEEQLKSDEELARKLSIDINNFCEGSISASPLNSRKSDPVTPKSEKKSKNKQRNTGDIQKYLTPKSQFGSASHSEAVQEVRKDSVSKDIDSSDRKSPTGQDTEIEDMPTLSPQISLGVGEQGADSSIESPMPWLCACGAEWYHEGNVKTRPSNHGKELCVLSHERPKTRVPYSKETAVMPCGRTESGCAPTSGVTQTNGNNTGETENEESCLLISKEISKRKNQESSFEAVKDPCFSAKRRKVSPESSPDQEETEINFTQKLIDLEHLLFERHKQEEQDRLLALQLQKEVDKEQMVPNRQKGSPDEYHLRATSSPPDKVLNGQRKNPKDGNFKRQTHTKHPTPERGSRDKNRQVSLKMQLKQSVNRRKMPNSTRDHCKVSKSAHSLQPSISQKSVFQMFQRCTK

Regarding `Nc1nc(N)c2cc(-c3cn(-c4ccc(Br)cc4)nn3)ccc2n1`, the 50% inhibitory concentration (IC50) in data set [1] is 2.14 µM; in data set [2], 1.69 µM.
The matching figures for `Nc1nc(N)c2cc(-c3cn(-c4ccc(F)cc4F)nn3)ccc2n1`: 3.74 µM and 3.29 µM.
As to `Nc1nc(N)c2cc(-c3cn(-c4ccc(Cl)cc4)nn3)ccc2n1`, the results for the IC50 in data set [1] and in [2] were 7.61 µM and 2.15 µM, respectively.
On to `Cc1nc2ccc(CN(C)c3ccc(C(=O)N[C@@H](CCC(=O)O)C(=O)O)s3)cc2c(=O)[nH]1` [RALTITREXED], for which the IC50 in data set [1] came out at 0.81 µM; in data set [2] it was 0.076 µM; in data set [3], 4.68 µM; in data set [4] it was 5.51 µM; in [5] it was 9.63 µM; in data set [6], 10.9 µM. The 50% inhibitory concentration (IC50) was more than 20 µM in [7], 9.52 µM in data set [8] and more than 20 µM in data set [9]. The IC50 at 72 h in [10] was more than 20 µM.
As to `CCN(CC)CCCC(C)Nc1ccnc2cc(Cl)ccc12` (stereo not drawn), the outcome in data set [11] and in data set [12] was Active.
For the compound `COC(=O)Nc1nc2cc(C(=O)c3cccs3)ccc2[nH]1` [NOCODAZOLE], the Activity in data set [13] amounted to 2.92%; in [14] it was 7.11%; in data set [15], 93.17%.
For `CC[C@@]1(O)C(=O)OCc2c1cc1n(c2=O)Cc2cc3ccccc3nc2-1`, in data set [16], the result was Active.
With `COc1ccc(OC)c(-n2cc(-c3ccc4nc(N)nc(N)c4c3)nn2)c1`, the values for the IC50 in [1] and in [2] were 8.36 µM and 3.09 µM, respectively.
The matching figures for `Nc1nc(N)c2cc(-c3cn(-c4ccc(O)cc4)nn3)ccc2n1`: more than 20 µM and more than 20 µM.
The matching figures for `COc1cc(-n2cc(-c3ccc4nc(N)[nH]c(=O)c4c3)nn2)cc(OC)c1OC`: more than 20 µM and more than 20 µM.
As for `COc1ccc(-n2cc(-c3ccc4nc(N)nc(N)c4c3)nn2)cc1O`, the IC50 in data set [1] and in [2] was more than 20 µM in each case.
For `O=c1[nH]cc(F)c(=O)[nH]1` [FLUOROURACIL], the IC50 in data set [1] was 4.52 µM; in data set [2], 4.89 µM; in data set [3] it was 3.52 µM; in data set [4], more than 20 µM; in [6], more than 20 µM; in [7], 10.2 µM. For the same compound, the IC50 in [8] is 7.54 µM; in data set [9], more than 20 µM. For the same compound, the IC50 at 72 h in data set [10] was more than 20 µM. Moreover, the values for the Activity in data set [17], in data set [18] and in data set [19] were 34.65%, 65.12% and 11.89%, respectively.
As to `COc1cc(-c2cn(-c3ccc4nc(N)nc(N)c4c3)nn2)cc(OC)c1OC`, the figures for the IC50 in data set [1] and in data set [2] were 1.88 µM and 0.87 µM, respectively.
The matching figures for `COc1ccc(-n2cc(-c3ccc4nc(N)nc(N)c4c3)nn2)c([N+](=O)[O-])c1`: 8.4 µM and 8.04 µM.
The matching figures for `N#Cc1ccc(-n2cc(-c3ccc4nc(N)nc(N)c4c3)nn2)cc1`: more than 20 µM and more than 20 µM.
With `Cc1ccc(-n2cc(-c3ccc4nc(N)nc(N)c4c3)nn2)cc1`, the IC50 in data set [1] turned out to be 1.78 µM; in [2] it was 2.46 µM.
The matching figures for `Nc1nc(N)c2cc(-c3cn(-c4ccc([N+](=O)[O-])cc4)nn3)ccc2n1`: 7.83 µM and 9.86 µM.
As to `Nc1nc(N)c2cc(-c3cn(-c4ccccc4)nn3)ccc2n1`, the figures for the half-maximal inhibitory concentration (IC50) in data set [1] and in [2] were 2.18 µM and 1.93 µM, respectively.
The matching figures for `COc1cc(OC)cc(-n2cc(-c3ccc4nc(N)nc(N)c4c3)nn2)c1`: 4.74 µM and 1.34 µM.
On to `COc1cc(-n2cc(-c3ccc4nc(C)[nH]c(=O)c4c3)nn2)cc(OC)c1OC`, for which the IC50 in [1] and in data set [2] was more than 20 µM each time.
Take `Nc1nc(N)c2cc(-c3cn(-c4ccc(F)cc4)nn3)ccc2n1`: the IC50 was 8.7 µM in data set [1] and 2.89 µM in [2].
The matching figures for `Nc1nc(N)c2cc(-n3cc(-c4ccccc4)nn3)ccc2n1`: 6.65 µM and 5.46 µM.
The matching figures for `COc1ccc(-n2cc(-c3ccc4nc(N)nc(N)c4c3)nn2)c(OC)c1`: more than 20 µM and 5.35 µM.
For the compound `COc1ccc(-n2cc(-c3ccc4nc(N)nc(N)c4c3)nn2)cc1`, the IC50 in [1] was more than 20 µM; in data set [2], 2.44 µM.
In the case of `COc1cccc(-n2cc(-c3ccc4nc(N)nc(N)c4c3)nn2)c1`, the IC50 in [1] is 3.27 µM; in [2] it was 2.75 µM.
With `COc1cc(-n2cc(-c3ccc4nc(N)nc(NCCCCCCNC(=O)CCCC[C@@H]5SC[C@@H]6NC(=O)N[C@@H]65)c4c3)nn2)cc(OC)c1OC`, the outcome in [20], in data set [21], in data set [22] and in [23] was Active. Also, binding in [24] was characterised by a dissociation constant (Kd) of 6.82 µM.
